From patent US20080207677A1, “Napthyridine Compounds As Rock Inhibitors” (GPC BIOTECH AG, priority 2004, published 2008) come the findings set out here.

The target of assay [1] is T1, recombinant human ROCK1 (amino acids 1-555, aminoterminal 6×His tag) (Homo sapiens, UniProt Q13464).
T1 construct: recombinant human ROCK1 (amino acids 1-555, aminoterminal 6×His tag); 6xHis (N)
Put plainly: Determination of ROCK kinase activity, IMAP assay, ROCK1 human. Format: biochemical. As to conditions: in vitro kinase assay, ATP 38.9 μM. As for the experimental part:
(§1) Determination of ROCK Kinase Activity
(§2) IC50 values for the various compounds were determined with recombinant human ROCK1 (amino acids 1-555, aminoterminal 6×His tag) and recombinant human ROCK2 (amino acids 1-530, aminoterminal 6×His tag) under the following reaction conditions:
• 1) Add 6 μl 8/6 fold concentrated Substrate+8/6 fold concentrated ATP in 1 fold concentrated Reaction Buffer to each well of Assay Plate • 2) Add 10.8 nl 740 fold concentrated Inhibitor in 100% DMSO to each well except to C− and C+ wells using pintool • 3) Add 10.8 nl 100% DMSO to C− and C+ wells using pintool • 4) Add 2 μl Reaction Buffer to C− wells • 5) Add 2 μl 4 fold concentrated Kinase in Reaction Buffer to each well except C− wells • 6) Incubate according to Reaction Time at room temperature • 7) Add 15 μl IMAP Binding Solution to each well • 8) Incubate according to IMAP Incubation Time at room temperature • 9) Measure Fluorescence Polarization • 10) Measure Fluorescence Intensity

Assay [2] addresses T2, recombinant human ROCK2 (amino acids 1-530, aminoterminal 6×His tag) (Homo sapiens, UniProt O75116).
T2 construct: recombinant human ROCK2 (amino acids 1-530, aminoterminal 6×His tag); 6xHis (N)
The assay is described as follows: Determination of ROCK kinase activity, IMAP assay, ROCK2 human. Format: biochemical. To be noted: for IC50: in vitro kinase assay, ATP 34.8 μM; for inhibition at 10 µM: % inhibition of the protein kinase ROCK2 at a concentration of 10 μM. As for the experimental part: as §1, §2
• 11) Add 6 μl 8/6 fold concentrated Substrate+8/6 fold concentrated ATP in 1 fold concentrated Reaction Buffer to each well of Assay Plate • 12) Add 10.8 nl 740 fold concentrated Inhibitor in 100% DMSO to each well except to C− and C+ wells using pintool • 13) Add 10.8 nl 100% DMSO to C− and C+ wells using pintool • 14) Add 2 μl Reaction Buffer to C− wells • 15) Add 2 μl 4 fold concentrated Kinase in Reaction Buffer to each well except C− wells • 16) Incubate according to Reaction Time at room temperature • 17) Add 15 μl IMAP Binding Solution to each well • 18) Incubate according to IMAP Incubation Time at room temperature • 19) Measure Fluorescence Polarization • 20) Measure Fluorescence Intensity

T2 sequence (O75116 1-530): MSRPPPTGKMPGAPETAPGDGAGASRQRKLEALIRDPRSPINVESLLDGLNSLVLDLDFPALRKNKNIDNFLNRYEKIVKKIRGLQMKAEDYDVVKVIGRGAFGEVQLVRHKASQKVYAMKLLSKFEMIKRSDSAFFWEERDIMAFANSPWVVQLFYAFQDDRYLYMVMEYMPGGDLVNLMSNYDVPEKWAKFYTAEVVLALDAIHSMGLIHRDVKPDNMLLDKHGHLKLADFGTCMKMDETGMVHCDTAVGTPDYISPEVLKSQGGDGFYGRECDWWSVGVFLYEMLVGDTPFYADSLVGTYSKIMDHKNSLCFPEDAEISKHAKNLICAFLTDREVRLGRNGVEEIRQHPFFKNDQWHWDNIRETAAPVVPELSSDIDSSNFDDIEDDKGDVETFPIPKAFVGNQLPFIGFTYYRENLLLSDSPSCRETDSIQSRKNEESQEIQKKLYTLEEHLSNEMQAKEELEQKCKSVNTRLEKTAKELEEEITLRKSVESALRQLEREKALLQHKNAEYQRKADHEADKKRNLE
T1 sequence (Q13464 1-555): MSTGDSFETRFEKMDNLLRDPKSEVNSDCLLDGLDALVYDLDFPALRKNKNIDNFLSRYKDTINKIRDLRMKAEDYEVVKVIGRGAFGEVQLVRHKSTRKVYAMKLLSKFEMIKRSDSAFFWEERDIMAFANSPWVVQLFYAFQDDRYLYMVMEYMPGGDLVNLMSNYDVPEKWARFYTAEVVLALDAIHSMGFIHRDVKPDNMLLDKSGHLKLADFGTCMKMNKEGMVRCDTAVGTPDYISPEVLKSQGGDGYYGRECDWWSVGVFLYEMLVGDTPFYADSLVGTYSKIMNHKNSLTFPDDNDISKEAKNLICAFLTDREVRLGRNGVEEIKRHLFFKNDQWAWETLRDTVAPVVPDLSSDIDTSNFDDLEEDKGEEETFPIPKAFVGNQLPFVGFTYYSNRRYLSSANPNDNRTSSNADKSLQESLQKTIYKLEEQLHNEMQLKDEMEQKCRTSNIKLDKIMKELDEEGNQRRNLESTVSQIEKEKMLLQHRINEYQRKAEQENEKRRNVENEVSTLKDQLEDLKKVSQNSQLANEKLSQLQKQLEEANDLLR

In general, IC50 refers to the concentration needed to halve the response being measured. For the compound `O=C(NCc1ccc2c(c1)OCO2)c1ccc2cnccc2n1` [[1,6]Naphthyridine-2-carboxylic acid (benzo[1,3]dioxol-5-ylmethyl)-amide], the values for the half-inhibitory concentration (IC50) in assay [1] and in assay [2] were 1460 nM and 1870 nM, respectively. In the same order, the values of `CC(NC(=O)c1ccc2cnccc2n1)c1ccc(Br)cc1` (stereo not drawn) [[1,6]Naphthyridine-2-carboxylic acid 1-(4-bromo-phenyl)-ethylamide] are 970 nM and 890 nM. Regarding `CC(NC(=O)c1ccc2cnccc2n1)c1ccsc1` (stereo not drawn) [[1,6]Naphthyridine-2-carboxylic acid 1-(thiophen-3-yl)-ethylamide], the IC50 in assay [2] turned out to be 1910 nM. As for `C[C@@H](NC(=O)c1ccc2cnccc2n1)c1ccc2ccccc2c1` [(R)-[1,6]Naphthyridine-2-carboxylic acid 1-(naphth-2-yl)-ethylamide], the IC50 in assay [1] stood at 2320 nM; in assay [2] it was 880 nM. The corresponding values for `O=C(NCc1cccs1)c1ccc2cnccc2n1` [[1,6]Naphthyridine-2-carboxylic acid thiophen-2-yl-methylamide] are 1970 nM and 7840 nM. In the same order, the values of `NC(=O)[C@H](Cc1ccc(O)cc1)NC(=O)c1ccc2cnccc2n1` [(S)-[1,6]Naphthyridine-2-carboxylic acid [1-carbamoyl-2-(4-hydroxy-phenyl)-ethyl]-amide] are 6830 nM and 4260 nM.

For the compound `CCC(NC(=O)c1ccc2cnccc2n1)c1ccc(Cl)cc1` (stereo not drawn) [[1,6]Naphthyridine-2-carboxylic acid 1-(4-chlorophenyl)-propylamide], the IC50 in assay [1] was found to be 1260 nM; in assay [2], 480 nM. As for `COc1ccc(C(C)NC(=O)c2ccc3cnccc3n2)cc1` (stereo not drawn) [[1,6]Naphthyridine-2-carboxylic acid 1-(4-methoxyphenyl)-ethylamide], the 50% inhibitory concentration (IC50) in assay [2] amounted to 10700 nM. For `O=C(NCCc1ccc(Br)cc1)c1ccc2cnccc2n1` [[1,6]Naphthyridine-2-carboxylic acid 2-(4-bromo-phenyl)-ethylamide], the IC50 in assay [1] stood at 1500 nM; in assay [2], 1520 nM.

Regarding `CC[C@@H](NC(=O)c1ccc2cnccc2n1)c1ccccc1` [(R)-[1,6]Naphthyridine-2-carboxylic acid 1-phenyl-propylamide], the IC50 in assay [2] came to 160 nM.

Regarding `CCC(NC(=O)c1ccc2cnccc2n1)c1cccc(Cl)c1` (stereo not drawn) [[1,6]Naphthyridine-2-carboxylic acid 1-(3-chlorophenyl)-propylamide], the IC50 in assay [1] is 300 nM; in assay [2], 380 nM. The corresponding values for `CCC(NC(=O)c1ccc2cnccc2n1)c1ccc(C)cc1` (stereo not drawn) [[1,6]Naphthyridine-2-carboxylic acid 1-(4-methylphenyl)-propylamide] are 790 nM and 1260 nM. In the same order, the values of `O=C(NCc1ccccc1Br)c1ccc2cnccc2n1` [[1,6]Naphthyridine-2-carboxylic acid 2-bromo-benzylamide] are 2240 nM and 7230 nM. Regarding `CCC(NC(=O)c1ccc2cnccc2n1)c1cccs1` (stereo not drawn) [[1,6]Naphthyridine-2-carboxylic acid 1-(thiophen-2-yl)-propylamide], the half-inhibitory concentration (IC50) in assay [2] came to 1010 nM.

`CCC(NC(=O)c1ccc2cnccc2n1)c1ccccc1` (stereo not drawn) [[1,6]Naphthyridine-2-carboxylic acid 1-phenyl-propylamide]: the IC50 in assay [1] was 660 nM; in assay [2], 500 nM. Turning to `O=C(NCCc1ccc(Cl)cc1)c1ccc2cnccc2n1` [[1,6]Naphthyridine-2-carboxylic acid 2-(4-chloro-phenyl)-ethylamide], the IC50 worked out at 1910 nM in assay [1] and 5700 nM in assay [2]. As to `CC(NC(=O)c1ccc2cnccc2n1)c1ccc(F)cc1` (stereo not drawn) [[1,6]Naphthyridine-2-carboxylic acid 1-(4-fluorophenyl)-ethylamide], the values for the IC50 in assay [1] and in assay [2] were 940 nM and 340 nM, respectively.

For the compound `Cc1ccc([C@@H](C)NC(=O)c2ccc3cnccc3n2)cc1` [(R)-[1,6]Naphthyridine-2-carboxylic acid 1-(4-methylphenyl)-ethylamide], in assay [2], the IC50 came to 410 nM. On the same count and under the same terms, the same measure for `C[C@@H](NC(=O)c1ccc2cnccc2n1)c1ccc(Cl)cc1` [(R)-[1,6]Naphthyridine-2-carboxylic acid 1-(4-chloro-phenyl)-ethylamide]: 360 nM. On to `O=C(NCc1cccc(Cl)c1)c1ccc2cnccc2n1` [[1,6]Naphthyridine-2-carboxylic acid 3-chloro-benzylamide], for which the 50% inhibitory concentration (IC50) in assay [1] was found to be 610 nM; in assay [2] it was 2570 nM. With `O=C(NCc1ccccc1F)c1ccc2cnccc2n1` [Compound 2, [1,6]Naphthyridine-2-carboxylic acid 2-fluoro-benzylamide], the IC50 in assay [1] stood at 790 nM; in assay [2] it was 2080 nM. Take `Cc1ccc(CNC(=O)c2ccc3cnccc3n2)cc1` [[1,6]Naphthyridine-2-carboxylic acid 4-methyl-benzylamide]: the IC50 in assay [1] came to 1280 nM; in assay [2], 2230 nM. What is called inhibition is the relative decrease from the control value, in per cent. Turning to `NC(=O)C(Cc1ccccc1)NC(=O)c1ccc2cnccc2n1` (stereo not drawn) [Compound 5, [1,6]Naphthyridine-2-carboxylic acid (1-carbamoyl-2-phenyl-ethyl)-amide], the inhibition at 10 µM in assay [2] turned out to be 62%. With `CCOc1ccccc1CNC(=O)c1ccc2cnccc2n1` [[1,6]Naphthyridine-2-carboxylic acid 2-ethoxy-benzylamide], in assay [2], the IC50 was found to be 13000 nM. As to `Cc1ccc(C(C)NC(=O)c2ccc3cnccc3n2)cc1` (stereo not drawn) [[1,6]Naphthyridine-2-carboxylic acid 1-(4-methylphenyl)-ethylamide], the half-maximal inhibitory concentration (IC50) in assay [1] came to 1290 nM; in assay [2] it was 1410 nM. With `C[C@H](NC(=O)c1ccc2cnccc2n1)c1ccccc1` [Compound 8, [1,6]Naphthyridine-2-carboxylic acid ((S)-1-phenyl-ethyl)-amide], the inhibition at 10 µM in assay [2] amounted to 37%. Consider `O=C(NCc1ccccc1)c1ccc2cnccc2n1` [[1,6]Naphthyridine-2-carboxylic acid benzylamide], for which the figures for the IC50 in assay [1] and in assay [2] were 3150 nM and 7680 nM, respectively. For `CC(NC(=O)c1ccc2cnccc2n1)c1ccccc1` (stereo not drawn) [Compound 4, [1,6]Naphthyridine-2-carboxylic acid (1-phenyl-ethyl)-amide], the IC50 in assay [1] stood at 710 nM. Moreover, in assay [2], the inhibition at 10 µM amounted to 81% and the IC50 was found to be 1590 nM.

For `COc1ccc(CNC(=O)c2ccc3cnccc3n2)cc1` [[1,6]Naphthyridine-2-carboxylic acid 4-methoxy-benzylamide], the IC50 in assay [1] came out at 6040 nM; in assay [2] it was 5120 nM. `NC(=O)C(Cc1ccc(Cl)cc1)NC(=O)c1ccc2cnccc2n1` (stereo not drawn) [Compound 6, [1,6]Naphthyridine-2-carboxylic acid [1-carbamoyl-2-(4-chloro-phenyl)-ethyl]-amide]: in assay [2], the inhibition at 10 µM was determined as 65%.

As to `O=C(NCc1ccc(Br)cc1)c1ccc2cnccc2n1` [Compound 3, [1,6]Naphthyridine-2-carboxylic acid 4-bromo-benzylamide], the half-maximal inhibitory concentration (IC50) in assay [1] stood at 1370 nM; in assay [2], 1330 nM.

`NC(=O)[C@H](Cc1ccccc1)NC(=O)c1ccc2cnccc2n1` [(S)-[1,6]Naphthyridine-2-carboxylic acid (1-carbamoyl-2-phenyl-ethyl)-amide]: the IC50 amounted to 8160 nM in assay [1] and 5640 nM in assay [2]. In the same order, the values of `O=C(NCc1ccc(Cl)cc1)c1ccc2cnccc2n1` [[1,6]Naphthyridine-2-carboxylic acid 4-chloro-benzylamide] are 2050 nM and 2110 nM.

As for `CC(NC(=O)c1ccc2cnccc2n1)c1ccc(Cl)cc1` (stereo not drawn) [[1,6]Naphthyridine-2-carboxylic acid 1-(4-chlorophenyl)-ethylamide], the IC50 in assay [1] stood at 1100 nM; in assay [2], 770 nM. In the case of `C[C@@H](NC(=O)c1ccc2cnccc2n1)c1ccccc1` [Compound 7, [1,6]Naphthyridine-2-carboxylic acid ((R)-1-phenyl-ethyl)-amide], the IC50 is 1130 nM in assay [1] and 920 nM in assay [2]. Further, in assay [2], the inhibition at 10 µM came out at 88%. For the compound `O=C(NCc1ccccc1Cl)c1ccc2cnccc2n1` [[1,6]Naphthyridine-2-carboxylic acid 2-chloro-benzylamide], the values for the half-inhibitory concentration (IC50) in assay [1] and in assay [2] were 4770 nM and 3830 nM, respectively. On to `COc1cccc(CNC(=O)c2ccc3cnccc3n2)c1` [[1,6]Naphthyridine-2-carboxylic acid 3-methoxy-benzylamide], for which the IC50 came to 3340 nM in assay [1] and 3100 nM in assay [2]. `O=C(NCc1cccc(Br)c1)c1ccc2cnccc2n1` [Compound 1, [1,6]Naphthyridine-2-carboxylic acid 3-bromo-benzylamide]: the half-inhibitory concentration (IC50) turned out to be 910 nM in assay [1] and 1040 nM in assay [2]. Besides, the inhibition at 10 µM in assay [2] was 87%.
